This is an account of results in US8722704B2, “Modulators of ATP-binding cassette-transporters” (Vertex Pharmaceuticals Incorporated, priority 2007, dated 2014).

The target in the assay is T1, ΔF508-CFTR (Homo sapiens, UniProt P13569, DEL508-508).
T1 construct: expressed in transfected cells
T1 sequence (P13569 with tags, fused parts or gaps DEL508-508): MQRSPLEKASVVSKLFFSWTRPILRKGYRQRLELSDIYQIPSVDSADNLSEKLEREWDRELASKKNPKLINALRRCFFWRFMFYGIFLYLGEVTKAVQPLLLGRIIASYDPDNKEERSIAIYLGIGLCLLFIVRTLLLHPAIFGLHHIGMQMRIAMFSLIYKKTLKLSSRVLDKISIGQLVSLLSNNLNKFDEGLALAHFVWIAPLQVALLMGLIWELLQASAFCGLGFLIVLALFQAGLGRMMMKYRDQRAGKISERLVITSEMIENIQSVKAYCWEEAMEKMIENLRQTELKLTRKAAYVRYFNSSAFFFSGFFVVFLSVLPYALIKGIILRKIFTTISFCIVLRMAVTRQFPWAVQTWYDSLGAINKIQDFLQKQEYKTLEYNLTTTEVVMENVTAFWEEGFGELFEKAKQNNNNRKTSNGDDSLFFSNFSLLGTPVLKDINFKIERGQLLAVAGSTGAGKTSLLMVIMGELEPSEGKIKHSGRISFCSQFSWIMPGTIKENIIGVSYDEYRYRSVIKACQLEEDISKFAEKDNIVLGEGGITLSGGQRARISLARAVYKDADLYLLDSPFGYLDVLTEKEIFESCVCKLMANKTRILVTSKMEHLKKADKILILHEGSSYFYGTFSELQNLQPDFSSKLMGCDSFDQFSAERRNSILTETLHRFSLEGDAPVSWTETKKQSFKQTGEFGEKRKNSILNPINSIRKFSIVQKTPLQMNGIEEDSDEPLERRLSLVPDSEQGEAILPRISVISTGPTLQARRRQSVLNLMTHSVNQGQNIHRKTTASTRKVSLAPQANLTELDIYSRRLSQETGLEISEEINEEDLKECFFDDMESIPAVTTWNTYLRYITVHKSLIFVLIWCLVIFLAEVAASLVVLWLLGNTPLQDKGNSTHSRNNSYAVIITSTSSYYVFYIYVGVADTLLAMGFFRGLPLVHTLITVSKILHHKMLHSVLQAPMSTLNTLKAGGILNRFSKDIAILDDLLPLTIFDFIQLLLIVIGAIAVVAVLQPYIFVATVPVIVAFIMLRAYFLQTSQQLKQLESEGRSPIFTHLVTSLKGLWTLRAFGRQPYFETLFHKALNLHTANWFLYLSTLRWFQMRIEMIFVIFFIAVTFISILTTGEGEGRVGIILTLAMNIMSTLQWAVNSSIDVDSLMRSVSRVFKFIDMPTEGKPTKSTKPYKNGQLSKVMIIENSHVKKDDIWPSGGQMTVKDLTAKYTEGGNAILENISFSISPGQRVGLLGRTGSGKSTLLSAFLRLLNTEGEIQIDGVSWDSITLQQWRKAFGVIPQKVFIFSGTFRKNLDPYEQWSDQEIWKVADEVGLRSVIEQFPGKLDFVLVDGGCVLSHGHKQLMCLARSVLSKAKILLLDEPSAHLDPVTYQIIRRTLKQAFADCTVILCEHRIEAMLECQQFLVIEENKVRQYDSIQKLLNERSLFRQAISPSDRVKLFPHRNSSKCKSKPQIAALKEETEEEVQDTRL
Kind of assay: Assays for detecting and measuring ΔF508-CFTR correction properties (membrane potential optical assay; Table 3 does not say which assay). The format is cell-based. Particulars: IC50/EC50 bins; NIH3T3 mouse fibroblasts stably expressing ΔF508-CFTR; read-out: Binned EC50. The source says: The optical membrane potential assay utilized voltage-sensitive FRET sensors described by Gonzalez and Tsien (See Gonzalez, J. E. and R. Y. Tsien (1995) “Voltage sensing by fluorescence resonance energy transfer in single cells” Biophys J 69(4): 1272-80, and Gonzalez, J. E. and R. Y. Tsien (1997) “Improved indicators of cell membrane potential that use fluorescence resonance energy transfer” Chem Biol 4(4): 269-77) in combination with instrumentation for measuring fluorescence changes such as the Voltage/Ion Probe Reader (VIPR) (See Gonzalez, J. E., K. Oades, et al. (1999) “Cell-based assays and instrumentation for screening ion-channel targets” Drug Discov Today 4(9): 431-439).
These voltage sensitive assays are based on the change in fluorescence resonant energy transfer (FRET) between the membrane-soluble, voltage-sensitive dye, DiSBAC2(3), and a fluorescent phospholipid, CC2-DMPE, which is attached to the outer leaflet of the plasma membrane and acts as a FRET donor. Changes in membrane potential (Vm) cause the negatively charged DiSBAC2(3) to redistribute across the plasma membrane and the amount of energy transfer from CC2-DMPE changes accordingly. The changes in fluorescence emission were monitored using VIPR™ II, which is an integrated liquid handler and fluorescent detector designed to conduct cell-based screens in 96- or 384-well microtiter plates.
To identify small molecules that correct the trafficking defect associated with ΔF508-CFTR; a single-addition HTS assay format was developed. The cells were incubated in serum-free medium for 16 hrs at 37° C. in the presence or absence (negative control) of test compound. As a positive control, cells plated in 384-well plates were incubated for 16 hrs at 27° C. to “temperature-correct” ΔF508-CFTR. The cells were subsequently rinsed 3× with Krebs Ringers solution and loaded with the voltage-sensitive dyes. To activate ΔF508-CFTR, 10 μM forskolin and the CFTR potentiator, genistein (20 μM), were added along with Cl^−-free medium to each well. The addition of Cl^−-free medium promoted Cl^− efflux in response to ΔF508-CFTR activation and the resulting membrane depolarization was optically monitored using the FRET-based voltage-sensor dyes. […]
3. Solutions • Bath Solution #1: (in mM) NaCl 160, KCl 4.5, CaCl2 2, MgCl2 1, HEPES 10, pH 7.4 with NaOH. • Chloride-free bath solution: Chloride salts in Bath Solution #1 are substituted with gluconate salts. • CC2-DMPE: Prepared as a 10 mM stock solution in DMSO and stored at −20° C. • DiSBAC2(3): Prepared as a 10 mM stock in DMSO and stored at −20° C.
NIH3T3 mouse fibroblasts stably expressing ΔF508-CFTR are used for optical measurements of membrane potential. The cells are maintained at 37° C. in 5% CO2 and 90% humidity in Dulbecco's modified Eagle's medium supplemented with 2 mM glutamine, 10% fetal bovine serum, 1×NEAA, β-ME, 1×pen/strep, and 25 mM HEPES in 175 cm^2 culture flasks. For all optical assays, the cells were seeded at 30,000/well in 384-well matrigel-coated plates and cultured for 2 hrs at 37° C. before culturing at 27° C. for 24 hrs for the potentiator assay. For the correction assays, the cells are cultured at 27° C. or 37° C. with and without compounds for 16-24 hours.
`Cc1cc2cc(-c3nc(NC(=O)C4(c5ccc6c(c5)OC(F)(F)O6)CC4)cc4ccccc34)ccc2[nH]1` [Compound 7, 1-(2,2-difluorobenzo[d][1,3]dioxol-5-yl)-N-(1-(2-methyl-1H-indol-5-yl)isoquinolin-3-yl)cyclopropanecarboxamide]: the EC50 is at most 2000 nM.
As for `C[N+](C)(C)CCOC(=O)c1cccc(-c2nc(NC(=O)C3(c4ccc5c(c4)OC(F)(F)O5)CC3)cc3ccccc23)c1` [Compound 28, 2-(3-(3-(1-(2,2-Difluorobenzo[d][1,3]dioxol-5-yl)cyclopropanecarboxamido)isoquinolin-1-yl)benzoyloxy)-N,N,N-trimethylethanaminium chloride], the EC50 was at most 2000 nM.
`CS(=O)(=O)NCc1ccc(-c2nc(NC(=O)C3(c4ccc5c(c4)OC(F)(F)O5)CC3)cc3ccccc23)cc1` [Compound 1, 1-(2,2-Difluorobenzo[d][1,3]dioxol-5-yl)-N-(1-(4-(methylsulfonamidomethyl)phenyl)isoquinolin-3-yl)cyclopropanecarboxamide]: the EC50 is above 5000 nM.
